# Experimental data as given in US8932597B2 (priority 2008, dated 2015).
# Legend:
# [1] = system: anti-M2 human monoclonal antibody Z3G1; assay type: binding
# HuM2e antibody 23K12 = assay type: binding, human
Substance,Signal (peptides that show specific binding to Z3G1) [1],Signal (peptides that bind to 23K21 and 8I10) (HuM2e antibody 23K12),Signal (peptides that bind to Z3G1) [1]
547 (SLLTETETPIRNEWGCRCNDSSD; epitope peptide) [compound 547],1594,919,–
314 (SLLTEVGSLLCEV; epitope peptide) [compound 314],2392,1834,–
672 (SLLTEVETPIRNEWGRRCNDSSD; epitope peptide) [compound 672],2372,735,–
368 (SLLTEVETPIRNEWG; epitope peptide) [compound 368],–,1486,2429
417 (SLLTEVETPIRNEWGCRCNDVSD; epitope peptide) [compound 417],–,772,2389
329 (SLLTEVGSCLCEC; epitope peptide) [compound 329],2558,1708,–
712 (SLLTEVETPIRNDWGCRCNDSSD; epitope peptide) [compound 712],2324,706,–
658 (SLLTEVYTPIRNEWGCRCNDSSD; epitope peptide) [compound 658],1092,751,–
294 (MSCLCECGMSLLTEV; epitope peptide) [compound 294],–,2039,1006
512 (SLLTEVETPIRNQWGCRCNDSSD; epitope peptide) [compound 512],2402,1039,–
670 (SLLTEVETWIRNEWGCRCNDSSD; epitope peptide) [compound 670],2146,736,–
343 (MSLLTEVGMSLLTEC; epitope peptide) [compound 343],–,1630,2831
510 (SLRTEVETPIRNEWGCRCNDSSD; epitope peptide) [compound 510],1034,1047,–
688 (SLLTEVETPIRNETGCRCNDSSD; epitope peptide) [compound 688],2401,724,–
415 (SLLTEVETPIRNEWGCRCNDRSD; epitope peptide) [compound 415],–,860,2502
513 (MCLLTEVGMSLLTEV; epitope peptide) [compound 513],–,1032,2697
375 (SLLTEVETPIRNEWGCRVNDSSD; epitope peptide) [compound 375],2316,1446,–
608 (SLLTEIETPIRNEWGCRCNDSSD; epitope peptide) [compound 608],2016,816,–
431 (SLLTEVETPIRNEWGCRCNDSTD; epitope peptide) [compound 431],–,701,2205
345 (CSLLTEVGSCLTEV; epitope peptide) [compound 345],2703,1616,–
656 (SLLTEVETPIWNEWGCRCNDSSD; epitope peptide) [compound 656],2250,753,–
484 (SLVTEVETPIRNEWGCRCNDSSD; epitope peptide) [compound 484],2029,1175,–
706 (SLLTEVETPIRNEWGCRCADSSD; epitope peptide) [compound 706],–,712,2329
